The values below come from ChEMBL document CHEMBL1128897, “Bivalent indoles exhibiting serotonergic binding affinity” (Bioorg Med Chem Lett, 1995).

By pIC50 is commonly meant −log10 of the IC50, conventionally taken in molar units. Low values mean a high IC50, high ones a low IC50.

The target of assay [1] is Sodium-dependent serotonin transporter (Rattus norvegicus, UniProt P31652). The experiment in a line: Ability to inhibit Serotonin transporter.
Assay [2] concerns the target 5-hydroxytryptamine receptor 1E (Homo sapiens, UniProt P28566). The experiment in a line: Inhibitory activity against 5-hydroxytryptamine 1E receptor subtype.
The target in assay [3] is T1, 5-hydroxytryptamine receptor 1A (Rattus norvegicus, UniProt P19327).
T1 sequence (P19327 whole entry): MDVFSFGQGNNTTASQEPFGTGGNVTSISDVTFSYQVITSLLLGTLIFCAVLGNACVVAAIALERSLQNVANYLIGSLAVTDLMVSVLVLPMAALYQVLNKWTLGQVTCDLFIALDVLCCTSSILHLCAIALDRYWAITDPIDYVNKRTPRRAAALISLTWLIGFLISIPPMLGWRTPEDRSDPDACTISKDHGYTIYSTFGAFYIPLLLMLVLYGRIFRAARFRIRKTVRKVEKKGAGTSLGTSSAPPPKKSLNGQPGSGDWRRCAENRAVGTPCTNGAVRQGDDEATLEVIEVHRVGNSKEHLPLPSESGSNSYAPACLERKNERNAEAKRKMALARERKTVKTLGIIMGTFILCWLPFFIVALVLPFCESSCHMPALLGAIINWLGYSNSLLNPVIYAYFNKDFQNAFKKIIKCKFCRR
Kind of assay: Inhibitory activity against 5-hydroxytryptamine 1A receptor subtype.

Each structure is given as a SMILES string. pIC50: −log10 of the molar value. Where only a bound is given, the exact number is not on record here.

Chain of Sodium-dependent serotonin transporter (P31652 whole entry): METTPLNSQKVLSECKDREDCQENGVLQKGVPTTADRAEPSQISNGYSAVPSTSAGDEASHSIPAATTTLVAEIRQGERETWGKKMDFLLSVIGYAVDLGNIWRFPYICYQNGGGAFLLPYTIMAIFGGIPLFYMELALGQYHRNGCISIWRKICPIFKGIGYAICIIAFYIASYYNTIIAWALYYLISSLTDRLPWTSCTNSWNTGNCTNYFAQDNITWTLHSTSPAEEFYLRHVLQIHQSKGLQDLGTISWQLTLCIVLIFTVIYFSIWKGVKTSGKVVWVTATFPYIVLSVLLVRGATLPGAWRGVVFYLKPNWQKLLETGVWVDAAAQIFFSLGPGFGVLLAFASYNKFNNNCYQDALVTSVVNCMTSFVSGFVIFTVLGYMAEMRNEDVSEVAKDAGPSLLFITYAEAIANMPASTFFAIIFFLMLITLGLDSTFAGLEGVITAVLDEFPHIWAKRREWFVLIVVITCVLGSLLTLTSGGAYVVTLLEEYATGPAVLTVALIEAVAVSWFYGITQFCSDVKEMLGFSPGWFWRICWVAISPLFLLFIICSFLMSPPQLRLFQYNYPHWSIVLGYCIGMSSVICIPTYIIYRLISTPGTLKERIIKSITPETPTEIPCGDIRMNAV
Chain of 5-hydroxytryptamine receptor 1E (P28566 whole entry): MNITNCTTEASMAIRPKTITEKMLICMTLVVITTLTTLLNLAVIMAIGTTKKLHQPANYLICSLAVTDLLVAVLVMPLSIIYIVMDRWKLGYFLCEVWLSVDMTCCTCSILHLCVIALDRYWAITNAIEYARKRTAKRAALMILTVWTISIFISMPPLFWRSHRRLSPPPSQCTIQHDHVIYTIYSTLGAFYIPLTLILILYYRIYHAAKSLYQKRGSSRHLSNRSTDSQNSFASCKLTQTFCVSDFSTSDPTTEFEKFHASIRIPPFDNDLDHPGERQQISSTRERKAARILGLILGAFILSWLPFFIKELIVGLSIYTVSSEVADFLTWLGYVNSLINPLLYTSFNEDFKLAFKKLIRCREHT

For `NC(=O)c1ccc2[nH]cc(C3=CCC(NCCCCNC4CC=C(c5c[nH]c6ccc(C(N)=O)cc56)CC4)CC3)c2c1` (centres undefined), the pIC50 in assay [1] is 7.32; in assay [2], less than 6.00; in assay [3], 7.84.
Regarding `NC(=O)c1ccc2[nH]cc(C3=CCC(NCCCCCCCCCCCCNC4CC=C(c5c[nH]c6ccc(C(N)=O)cc56)CC4)CC3)c2c1` (centres undefined), the pIC50 in assay [3] is 9.89.
As to `NC(=O)c1ccc2[nH]cc(C3=CCC(NCCCCCCCCCCNC4CC=C(c5c[nH]c6ccc(C(N)=O)cc56)CC4)CC3)c2c1` (centres undefined), the pIC50 was less than 6.00 in assay [2] and 9.66 in assay [3].
For the compound `NC(=O)c1ccc2[nH]cc(C3=CCC(NCCCCCCNC4CC=C(c5c[nH]c6ccc(C(N)=O)cc56)CC4)CC3)c2c1` (centres undefined), the negative logarithm of the IC50 (pIC50) in assay [1] was 7.47; in assay [2], less than 6.00; in assay [3], 8.64.
Turning to `NC(=O)c1ccc2[nH]cc(C3=CCC(NCCNC4CC=C(c5c[nH]c6ccc(C(N)=O)cc56)CC4)CC3)c2c1` (centres undefined), the pIC50 in assay [1] was 7.90; in assay [2], less than 6.00; in assay [3], 8.70.
Take `NC(=O)c1ccc2[nH]cc(C3=CCC(NCCCNC4CC=C(c5c[nH]c6ccc(C(N)=O)cc56)CC4)CC3)c2c1` (centres undefined): the pIC50 was less than 6.00 in assay [2] and 7.74 in assay [3].
With `NC(=O)c1ccc2[nH]cc(C3=CCC(NCCCCCCCCNC4CC=C(c5c[nH]c6ccc(C(N)=O)cc56)CC4)CC3)c2c1` (centres undefined), the pIC50 was 7.91 in assay [1], 6.41 in assay [2] and 8.67 in assay [3].
On the same counts, the results for `NC(=O)c1ccc2[nH]cc(C3=CCC(NCCCCCNC4CC=C(c5c[nH]c6ccc(C(N)=O)cc56)CC4)CC3)c2c1` (centres undefined) are 7.32, less than 6.00 and 8.54.
On the same counts, the results for `NC(=O)c1ccc2[nH]cc(C3=CCC(NCCCCCCCNC4CC=C(c5c[nH]c6ccc(C(N)=O)cc56)CC4)CC3)c2c1` (centres undefined) are 7.75, 7.00 and 8.74.
As for `CCCCCCCNC1CC=C(c2c[nH]c3ccc(C(N)=O)cc23)CC1` (centres undefined), the negative-log IC50 (pIC50) in assay [3] was 8.90.
